Columns and labels:
[1] = Relative stability of binary mixtures of the modifications in water; type: physicochemical
[2] = Storage stability of the crystalline modification at elevated temperature; type: physicochemical
Description: The crystalline modification of cefuroximaxetil according to the invention is stable in storage. […] Even after storage for 2 months at 40° C. and 75% rel. atmospheric humidity, the content of the comparatively easily formed Δ^3-degradation product is still below 1.0 wt. %, which is indicative of excellent stability of the modification according to the invention.

[3] = Solubility / saturation solubility of cefuroximaxetil; type: physicochemical
[4] = cited from earlier work; for Solubility of the active ingredient (dissolved): after 45 minutes, standard method USP 23 page 316

CO/N=C(\C(=O)N[C@@H]1C(=O)N2C(C(=O)OC(C)OC(C)=O)=C(COC(N)=O)CS[C@H]12)c1ccco1 (some centres unmarked) [δ-modification, cefuroximaxetil]
Stability relative to the α-, β- and γ-modification [1]: stabler
Change to the composition, chemically (decomposition products) or physically (solubility, X-ray diffractogram) ([2]; after storage at elevated temperature): no significant change
Content of Δ^3-degradation product ([2]; after storage for 2 months at 40° C. and 75% rel. atmospheric humidity): below 1.0 wt. %

CO/N=C(\C(=O)N[C@@H]1C(=O)N2C(C(=O)OC(C)OC(C)=O)=C(COC(N)=O)CS[C@H]12)c1ccco1 (stereo partly drawn) [Cefuroximaxetil, 1-acetoxyethyl ester of cefuroxime, i.e. of (6R,7R)-3-carbamoyloxymethyl-7-[(Z)-2-(fur-2-yl)-2-methoxyiminoacetamido]ceph-3-em-4-carboxylic acid]
Saturation solubility ([3]; in the dissolution medium (1000 ml), artificial gastric juice + Tween 80): 600 mg
Solubility ([3]; largely pH-independent): approx. 0.5 mg/ml

CO/N=C(\C(=O)N[C@@H]1C(=O)N2C(C(=O)OC(C)OC(C)=O)=C(COC(N)=O)CS[C@H]12)c1ccco1 (stereo partly drawn) [β-modification, cefuroximaxetil]
Solubility of the active ingredient (dissolved) [4]: over 40%

CO/N=C(\C(=O)N[C@@H]1C(=O)N2C(C(=O)OC(C)OC(C)=O)=C(COC(N)=O)CS[C@H]12)c1ccco1 (some centres unmarked) [γ-modification, cefuroximaxetil]
Solubility of the active ingredient (dissolved) [4]: 73.0%

CO/N=C(\C(=O)N[C@@H]1C(=O)N2C(C(=O)OC(C)OC(C)=O)=C(COC(N)=O)CS[C@H]12)c1ccco1 (stereo partly drawn) [α-modification, cefuroximaxetil]
Solubility when tested according to USP 23 ([4]; minimum: 60% in 15 minutes, 75% within 45 minutes): does not achieve the specified minimum solubility

Source: patent publication US8747900B2, “Dosage form with improved release of cefuroximaxetil” (Gruenenthal GmbH, priority 2005, dated 2014)
